Our source for the MIC, ED50 and LD50 values is patent US5001121A, “Cephalosporin compounds and pharmaceutical compositions thereof” (Mochida Pharmaceutical Co., Ltd., priority 1985, dated 1991).

One data set deals with Escherichia coli 67. Briefly: Antibacterial activity in vitro, agar plate dilution method (MIC). Type of data set: cell-based. The conditions noted are these: Mueller Hinton agar, 10^6 cells/ml, 37° C., 20 hours. The protocol:
(§1) Antibacterial activity in vitro was determined in accordance with the agar plate dilution method. A platinum loop each of test bacteria (10^6 cells/ml), cultured in Mueller Hinton broth, was inoculated on Mueller Hinton agar plates which contained test compounds at various concentrations. After cultivating at 37° C. for 20 hours, the minimum inhibitory concentration (MIC μg/ml) was determined.

The subject of data set [1] is Klebsiella pneumoniae IFO3317. Described as above. The note with it: Mueller Hinton agar, 10^6 cells/ml, 37° C., 20 hours. Type of data set: cell-based. How it is done:
as §1

For data set [2], the system named is Pseudomonas aeruginosa IFO3445. Described as above. Type of data set: cell-based. The conditions noted are these: Mueller Hinton agar, 10^6 cells/ml, 37° C., 20 hours. How it is done: as §1
Data set [3] has as its system Serratia marcescens IFO3759. Described as above. Type of data set: cell-based. The conditions noted are these: Mueller Hinton agar, 10^6 cells/ml, 37° C., 20 hours. The protocol:
as §1

In data set [4] the test system is Staphylococcus aureus Smith. The description is as above. The conditions noted are these: Mueller Hinton agar, 10^6 cells/ml, 37° C., 20 hours. Type of data set: cell-based. The protocol:
as §1

Another data set relates to Serratia marcescens 274. Briefly: Protection ability against systemic infection. Type of data set: in vivo, ICR mice. The conditions noted are these: iv, 168 h, i.p. infection, i.v. compound 1 hour later, survival at 1 week. How it is done:
(§2) Protection ability against systemic infection was determined as follows. An aqueous suspension of test bacteria was intraperitoneally injected into 10 four week old ICR mice. One hour after the infection, test compounds were intravenously administered. The number of surviving mice was counted 1 week after injection to determine the dose at which 50% of the test animals were alive (ED50 :mg/kg).

A short description of the next data set: LD50, Probit method. The conditions noted are these: in vivo, iv. How it is done:
Next, LD50 of representative examples of the compounds of the present invention is shown in Table 3 wherein LD50 was determined in accordance with the Probit method.

Data set [5] relates to Bacteroides fragilis 5524. Kind of data set: Antibacterial activity in vitro, agar plate dilution method (MIC). Type of data set: cell-based. The conditions noted are these: Mueller Hinton agar, 10^6 cells/ml, 37° C., 20 hours. How it is done: as §1
The subject of the next data set is Escherichia coli 111. Briefly: Protection ability against systemic infection. Type of data set: in vivo, ICR mice. The conditions noted are these: Escherichia coli, 111, in Mus musculus, iv, 168 h, i.p. infection, i.v. compound 1 hour later, survival at 1 week. How it is done: as §2
The test system of data set [6] is Pseudomonas aeruginosa IFO3445. Briefly: Protection ability against systemic infection. Type of data set: in vivo, ICR mice. The conditions noted are these: iv, 168 h, i.p. infection, i.v. compound 1 hour later, survival at 1 week. The protocol: as §2
The subject of data set [7] is Staphylococcus aureus 242 (methicillin-resistant strain). Briefly: Protection ability against systemic infection. The conditions noted are these: in Mus musculus, iv, 168 h, i.p. infection, i.v. compound 1 hour later, survival at 1 week. Type of data set: in vivo, ICR mice. How it is done: as §2
Setting [8] is: in Mus musculus, Table 2-b, read-out: ED50.
The mark [9] stands for this setting: in Mus musculus, Table 2-a, read-out: ED50.
Where [10] appears, read: Serratia marcescens, 274, in Mus musculus, Table 2-a.

SMILES strings stand for the structures. In brackets after ≈: the same amount, converted by molar mass. Where two headings read alike, the source gives them in different places.

Broadly, the MIC is the lowest concentration found to suppress growth. A word on the ED50: it is the dose at which the effect has come halfway, by size or by number of responders. A word on the LD50: it is the dose at which mortality reaches 50%. Higher therefore signals lower toxicity. Take `Nc1nc(/C(=N/OC(C(=O)O)c2ccc(O)c(O)c2)C(=O)N[C@@H]2C(=O)N3C(C(=O)O)=C(CSc4cc(C(=O)O)c5nnnn5n4)CS[C@H]23)cs1` (stereo partly drawn) [Compound 13, (6R,7R)-7-[2-(2-amino-4-thiazolyl)-2-[Z-[carboxy(3,4-dihydroxyphenyl)methyl]oxyimino]acetamido]-3-[(8-carboxytetrazolo [1,5-b]pyridazin-6-yl)thiomethyl]-8-oxo-5-thia-1-azabicyclo[4.2.0]oct-2-ene-2-carboxylic acid]: the MIC with Escherichia coli 67 was 0.2 µg/mL (≈ 0.269 µM); in data set [1] it was less than 0.05 µg/mL; in data set [2], 0.78 µg/mL (≈ 1.05 µM); in [3], 0.2 µg/mL (≈ 0.269 µM); in data set [4], 1.56 µg/mL (≈ 2.09 µM). Moreover, the ED50 in the data set with Serratia marcescens 274 (setting [8]) was found to be 1.05 mg/kg. The same compound returned an LD50 in the data set “LD50, Probit method” greater than 1000 mg/kg.
On to `Cc1cc(SCC2=C(C(=O)O)N3C(=O)[C@@H](NC(=O)/C(=N\O[C@H](C(=O)O)c4ccc(O)c(O)c4)c4csc(N)n4)[C@H]3SC2)n2nc(C(=O)O)nc2n1` [Compound 9, (6R,7R)-7-[2-(2-amino-4-thiazolyl)-2-[Z-[(S)-carboxy(3,4-dihydroxyphenyl)-methyl]oxyimino]acetamido]-3-[(2-carboxy-5-methyl-s-triazolo [1,5-a]pyrimidin-7-yl)thiomethyl]-8-oxo-5-thia-1-azabicyclo[4.2.0]oct-2-ene-2-carboxylic acid], for which the MIC in data set [5] is 6.25 µg/mL (≈ 8.25 µM); against Escherichia coli 67, 0.1 µg/mL (≈ 0.132 µM); in [1] it was less than 0.05 µg/mL; in data set [2] it was 1.56 µg/mL (≈ 2.06 µM); in [3] it was 0.05 µg/mL (≈ 0.066 µM); in data set [4] it was 0.78 µg/mL (≈ 1.03 µM). In addition, the ED50 was 1.73 mg/kg in the data set with Escherichia coli 111 (Table 2-b, read-out: ED50); 95 mg/kg in data set [6] (setting [8]); 0.47 mg/kg in the data set with Serratia marcescens 274 (setting [8]); 3.34 mg/kg in data set [7] (Table 2-b, read-out: ED50). Moreover, the LD50 in “LD50, Probit method” is greater than 1000 mg/kg.
Turning to `Cn1nnnc1SCC1=C(C(=O)O)N2C(=O)[C@@H](NC(=O)[C@H](O)c3ccccc3)[C@H]2SC1` [CMD, Cefamandole, reference compound], in [7] (Table 2-a, read-out: ED50), the ED50 amounted to 31 mg/kg.
As to `Cc1cc(SCC2=C(C(=O)O)N3C(=O)[C@@H](NC(=O)/C(=N\OC(=O)c4cc(O)c(O)cc4C)c4csc(N)n4)[C@H]3SC2)n2nc(C(=O)O)nc2n1` [Compound 3], the MIC was less than 0.05 µg/mL in the data set with Escherichia coli 67, less than 0.05 µg/mL in data set [1], 0.2 µg/mL (≈ 0.27 µM) in [2] and less than 0.05 µg/mL in data set [3]. Moreover, the ED50 was determined as 407 mg/kg in data set [6] (setting [9]); 1.73 mg/kg in the data set with Serratia marcescens 274 (setting [10]); 1.79 mg/kg in data set [7] (Table 2-a, read-out: ED50).
Turning to `CC(=O)Oc1cc(C)c(C(=O)O/N=C(\C(=O)N[C@@H]2C(=O)N3C(C(=O)O)=C(CSc4cc(C)nc5nc(C(=O)O)nn45)CS[C@H]23)c2csc(N)n2)cc1OC(C)=O` [Compound 2, (6R,7R)-7-[2-(2-amino-4-thiazolyl)-2-[Z-(4,5-diacetoxy-2-methylbenzoyl)oxyimino]acetamido]-3-[(2-carboxy-5-methyl-s-triazolo [1,5-a]pyrimidin-7-yl)thiomethyl]-8-oxo-5-thia-1-azabicyclo[4.2.0]oct-2-ene-2-carboxylic acid], the MIC in the data set with Escherichia coli 67 is less than 0.05 µg/mL; in data set [1] it was less than 0.05 µg/mL; in [2] it was 0.2 µg/mL (≈ 0.242 µM); in data set [3] it was less than 0.05 µg/mL; in data set [4] it was 0.78 µg/mL (≈ 0.945 µM). Besides, the ED50 in the data set with Escherichia coli 111 (Table 2-a, read-out: ED50) was found to be 2.28 mg/kg; in data set [6] (setting [9]), 212 mg/kg; in the data set on Serratia marcescens 274 (setting [9]), 3.08 mg/kg; in data set [7] (Table 2-a, read-out: ED50), 7.9 mg/kg. This compound also returned an LD50 in “LD50, Probit method” greater than 1000 mg/kg.
With `CC(C)(O/N=C(\C(=O)N[C@@H]1C(=O)N2C(C(=O)[O-])=C(C[n+]3ccccc3)CS[C@H]12)c1csc(N)n1)C(=O)O` [CAZ, Ceftazidime, reference compound], the ED50 in the data set on Escherichia coli 111 (Table 2-a, read-out: ED50) amounted to 6.55 mg/kg; with Escherichia coli 111 (Table 2-b), 3.91 mg/kg; in data set [6] (Pseudomonas aeruginosa, IFO3445, in Mus musculus, Table 2-a) it was 229 mg/kg; in data set [6] (Pseudomonas aeruginosa, IFO3445, in Mus musculus, Table 2-b), 230 mg/kg; in the data set with Serratia marcescens 274 (setting [10]), 4.23 mg/kg; in the data set on Serratia marcescens 274 (Serratia marcescens, 274, in Mus musculus, Table 2-b), 6.41 mg/kg. Also, the ED50 in data set [7] (Table 2-a) was greater than 100 mg/kg; in data set [7] (Table 2-b) it was greater than 2100 mg/kg.
